These results are taken from patent US7517998B2, “Non nucleoside reverse transcriptase inhibitors” (priority 2004, dated 2009).

The experiment has as its target T1, K103NNY181C mutant reverse transcriptase (Human immunodeficiency virus type 1 group M subtype B, UniProt P04585, K690N/Y768C).
T1 construct: mutations that occur in the reverse transcriptase segment of the pol gene
In words: Reverse transcriptase enzymatic assay (PicoGreen), K103N/Y181C mutant RT. It is filed as biochemical, HIV-1. The following applies: enzymatic assay of Example 24. The gist of the method: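 PicoGreen fluorescence (ex 485, em 520 nm) quantified product after EDTA stop. Reaction ran 50 min at 37 °C in pH 7.8 Tris/HCl buffer, 1% DMSO, with poly rC/dG15 template-primer (45/4.5 nM), 3.6 μM dGTP, 2.5 nM enzyme; inhibitor 10 μM–0.508 nM final after 15 min room-temperature pre-incubation.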

Setting [1] is: IC50 mut, K103N/Y181C mutant reverse transcriptase.
[2] abbreviates: IC50 mut (nM), mutant (K103N/Y181C) reverse transcriptase.
Setting [3] is: IC50 mut, mutant reverse transcriptase.

What is called IC50 is the concentration that inhibits the measured activity by half.

Under setting [1], `CC(C)(C#Cc1ccc(NC(=O)CSc2nnnn2-c2ccc(C3CC3)cc2Cl)c(Cl)c1)NC(=O)CN1CCCC1` [Compound 4123] returned an IC50 of 38 nM. `CC(C)(C)c1ccc(-n2nnnc2SCC(=O)Nc2ccc(NC(=O)Cc3cccnc3)cc2Cl)c(Cl)c1` [Compound 7031]: inhibition under setting [2] was half-maximal at 43 nM (IC50). The molecule `CC(C)(C)c1ccc(-n2nnnc2SCC(=O)Nc2ccc(-c3ccc(/C=C/C(=O)O)s3)cc2Cl)c(Cl)c1` [Compound 3031] showed a half-maximal inhibitory concentration (IC50) under setting [3] of 15.5 nM. Regarding `CC(C)(C#Cc1ccc(NC(=O)CSc2nnnn2-c2ccc(C3CC3)cc2Cl)c(Cl)c1)NC(=O)CN1CCN(CCn2cccc2)CC1` [Compound 4126], the IC50 under setting [1] is 78 nM.

For the molecule `CC(NC(=O)COC(C)(C)C#Cc1ccc(NC(=O)CSc2nnnn2-c2ccc(C(C)(C)C)cc2Cl)c(Cl)c1)C(=O)O` (centres unmarked) [Compound 4053], the IC50 under setting [1] was 25 nM. Under setting [3], `CN(C)S(=O)(=O)c1ccc(NC(=O)CSc2nnnn2-c2ccc(C(C)(C)C)cc2Cl)c(Cl)c1` [Compound 3025] registered an IC50 of 217 nM.

Under setting [1], `CC(C)(C#Cc1ccc(NC(=O)CSc2nnnn2-c2cc(C(F)(F)F)cc(C3CC3)c2Cl)c(Cl)c1)OCCN1CCNCC1` [Compound 4235] displayed an IC50 of 718 nM. With `CC(C)(C)c1ccc(-n2nnnc2SCC(=O)Nc2ccc(OCC(=O)Nc3ccccc3C(=O)O)cc2Cl)c(Cl)c1` [Compound 5010], the IC50 under setting [3] turned out to be 402 nM.

Under setting [3], `CC(C)(C)c1ccc(-n2nnnc2SCC(=O)Nc2ccc(S(=O)(=O)NCC(=O)O)cc2Cl)c(Cl)c1` [Compound 3032] displayed an IC50 of 97.5 nM. For `CC(C)(C)c1ccc(-n2nnnc2SCC(=O)Nc2ccc(C(=O)NCCc3ccc(O)c(O)c3)cc2Cl)c(Cl)c1` [Compound 6020], it took 51 nM to reach half-maximal inhibition under setting [3] (IC50). In the case of `CC(C)(C#Cc1ccc(NC(=O)CSc2nnnn2-c2ccc(C(C)(C)C)cc2Cl)c(Cl)c1F)C(=O)O` [Compound 4122], the IC50 under setting [1] is 15.5 nM. `COc1ccc(CC(=O)Nc2ccc(NC(=O)CSc3nnnn3-c3ccc(C(C)(C)C)cc3Cl)c(Cl)c2)cc1` [Compound 7015]: the IC50 under setting [2] is 189 nM.

Under setting [1], `CC(C)(C#Cc1ccc(NC(=O)CSc2nnnn2-c2ccc(C3CC3)cc2Cl)c(Cl)c1)NC(=O)CN1CCC(C(=O)O)CC1` [Compound 4154] registered an IC50 of 10.5 nM. As for `Cc1ccc(-n2nnnc2SCC(=O)Nc2ccc(-c3ccc(CC(=O)O)cc3)cc2Cl)c(Cl)c1` [Compound 2004], it took 48 nM to reach half-maximal inhibition under setting [3] (IC50). Take `Cc1cc(-c2ccc(NC(=O)CSc3nnnn3-c3ccc(C(C)(C)C)cc3Cl)c(Cl)c2)ccc1OCC(=O)O` [Compound 3010]: the IC50 under setting [3] turned out to be 33 nM. Take `CC(C)(C)c1ccc(-n2nnnc2SCC(=O)Nc2ccc(NC(=O)C(C)(C)c3ccccc3)cc2Cl)c(Cl)c1` [Compound 7041]: the IC50 under setting [2] was determined as 337 nM. As to `CC(C)(C#Cc1ccc(NC(=O)CSc2nnnn2-c2ccc(C3CC3)cc2Cl)c(Cl)c1F)OCCOc1ccc[n+]([O-])c1` [Compound 4215], the IC50 under setting [1] stood at 56.5 nM. For `CC(C)(C#Cc1ccc(NC(=O)CSc2nnnn2-c2cc(C3CC3)cc(C(F)(F)F)c2Cl)c(Cl)c1)C(=O)O` [Compound 4159], 136 nM corresponded to half-maximal inhibition under setting [1] (IC50). Still for that read-out and setting: then `CC(C)(C#Cc1ccc(NC(=O)CSc2nnnn2-c2cc(C3CC3)ccc2Cl)c(Cl)c1)C(=O)O` [Compound 4174], with 34 nM. For `COC(=O)c1ccc(-c2ccc(NC(=O)CSc3nnnn3-c3ccc(C(C)(C)C)cc3Cl)c(Cl)c2)cc1` [Compound 2008], under setting [3], the midpoint of inhibition, the IC50, lay at 39 nM. Consider `CC(C)(C)c1ccc(-n2nnnc2SCC(=O)Nc2ccc(NC(=O)Cc3cc[n+]([O-])cc3)cc2Cl)c(Cl)c1` [Compound 7046], for which inhibition under setting [2] was half-maximal at 140 nM (IC50). For `CC(C)(N)C#Cc1ccc(NC(=O)CSc2nnnn2-c2cc(Br)ccc2Cl)c(Cl)c1` [Compound 4220], 97.5 nM corresponded to half-maximal inhibition under setting [1] (IC50). `CC(C)(C#Cc1ccc(NC(=O)CSc2nnnn2-c2ccc(C3CC3)cc2Cl)c(Cl)c1)NC(=O)CNc1ccncc1` [Compound 4188]: the IC50 under setting [1] was determined as 24 nM. Molecule `CC(C)(C)c1ccc(-n2nnnc2SCC(=O)Nc2ccc(-c3ccc(S(C)(=O)=O)cc3)cc2Cl)c(Cl)c1` [Compound 2027] gave an IC50 under setting [3] of 23 nM. Still for that read-out and setting: under `CC(C)(C)c1ccc(-n2nnnc2SCC(=O)Nc2ccc(-c3cccc(C(=O)O)c3)cc2Cl)c(Cl)c1` [Compound 3022] stands 50 nM. As to `CC(C)(C#Cc1ccc(NC(=O)CSc2nnnn2-c2ccc(C3CC3)cc2Cl)c(Cl)c1)NC(=O)C1CC1` [Compound 4079], it took 6.8 nM to reach half-maximal inhibition under setting [1] (IC50). On the same count and under the same terms, then `CC(C)(C#Cc1ccc(NC(=O)CSc2nnnn2-c2ccc(C3CC3)cc2Cl)c(Cl)c1)C(=O)N1CCC(C(=O)O)CC1` [Compound 4149], with 16.5 nM; and `CC(C)(O)C#Cc1ccc(NC(=O)CSc2nnnn2-c2cc(C(C)(C)C)ccc2Cl)c(Cl)c1` [Compound 4199], with 32 nM. The same measure, in the same setting: under `CC(C)(C#Cc1ccc(NC(=O)CSc2nnnn2-c2ccc(C3CC3)cc2Cl)c(Cl)c1)OCCNC1CC1` [Compound 4117] stands 52 nM.

The molecule `CC(C)(C)c1ccc(-n2nnnc2SCC(=O)Nc2ccc(OCC(=O)NCCc3ccc(O)c(O)c3)cc2Cl)c(Cl)c1` [Compound 5021] had an IC50 under setting [3] of 181 nM. For `CC(C)(C#Cc1ccc(NC(=O)CSc2nnnn2-c2ccc(C3CC3)cc2Cl)c(Cl)c1F)OCCN1CCNCC1` [Compound 4176], the IC50 under setting [1] was found to be 108 nM. Under setting [1], `CC(C)(C#Cc1ccc(NC(=O)CSc2nnnn2-c2ccc(C(C)(C)C)cc2Cl)c(Cl)c1)OCC(=O)NNC(N)=O` [Compound 4056] displayed an IC50 of 26 nM.

`CC(C)(C#Cc1ccc(NC(=O)CSc2nnnn2-c2ccc(C3CC3)cc2Cl)c(Cl)c1)NC(=O)Cn1cncn1` [Compound 4109] returned an IC50 under setting [1] of 10.8 nM. On to `CC(C)(N)C#Cc1ccc(NC(=O)CSc2nnnn2-c2ccc(C3CC3)cc2Cl)c(Cl)c1F` [Compound 4151], for which the concentration for half-maximal inhibition (IC50) under setting [1] was determined as 22.5 nM.

For the molecule `CC(C)(C)c1ccc(-n2nnnc2SCC(=O)Nc2ccc(NC(=O)c3ccc(C(=O)O)cc3)cc2Cl)c(Cl)c1` [Compound 7029], it took 88 nM to reach half-maximal inhibition under setting [2] (IC50). For `COC(C)(C)C#Cc1ccc(NC(=O)CSc2nnnn2-c2ccc(C3CC3)cc2Cl)c(Cl)c1` [Compound 4074], under setting [1], half-maximal inhibition (IC50) was put at 35.5 nM. Take `COC(=O)c1cccc(-c2ccc(NC(=O)CSc3nnnn3-c3ccc(C)cc3Cl)c(Cl)c2)c1` [Compound 3001]: the IC50 under setting [3] was determined as 146 nM. In turn, `CC(C)(C)c1ccc(-n2nnnc2SCC(=O)Nc2ccc(NC(=O)C3CCCC3)cc2Cl)c(Cl)c1` [Compound 7021] yielded an IC50 under setting [2] of 262 nM. `O=C(COc1ccc(NC(=O)CSc2nnnn2-c2ccc(C3CC3)cc2Cl)c(Cl)c1)NCCc1ccncc1` [Compound 5036] registered an IC50 under setting [3] of 271 nM. The same measure, in the same setting: under `CC(C)(C)c1ccc(-n2nnnc2SCC(=O)Nc2ccc(-c3ccc(CCC(=O)O)cc3)cc2Cl)c(Cl)c1` [Compound 2028] stands 9.3 nM. With `CC(C)(C)c1ccc(-n2nnnc2SCC(=O)Nc2ccc(NS(=O)(=O)c3cccs3)cc2Cl)c(Cl)c1` [Compound 7007], the IC50 under setting [2] was 331 nM. As for `Cc1ccc(-c2nnsc2SCC(=O)Nc2ccc(-c3ccc(CC(=O)O)cc3)cc2Cl)c(Cl)c1` [Compound 1007], under setting [3], inhibition was half-maximal at 107 nM (IC50). `Cc1ccc(-n2nnnc2SCC(=O)Nc2ccc(-c3cscn3)cc2Cl)c(Cl)c1` [Compound 3014] gave an IC50 under setting [3] of 142 nM.

Under setting [1], `CC(C)(C)c1ccc(-n2nnnc2SCC(=O)Nc2ccc(C#CCOC(N)=O)cc2Cl)c(Cl)c1` [Compound 4034] came in with an IC50 of 8.9 nM. Under setting [3], `CC(C)(C)c1ccc(-n2nnnc2SCC(=O)Nc2ccc(-c3ccc(OCCN4CCCC4)cc3)cc2Cl)c(Cl)c1` [Compound 2029] displayed an IC50 of 19 nM. For the molecule `CN1CCN(C(=O)NC(C)(C)C#Cc2ccc(NC(=O)CSc3nnnn3-c3ccc(C4CC4)cc3Cl)c(Cl)c2)CC1` [Compound 4229], under setting [1], the IC50 amounted to 15 nM.

The molecule `CC(C)(C#Cc1ccc(NC(=O)CSc2nnnn2-c2cc(Cl)ccc2Cl)c(Cl)c1)NC(=O)c1cc[n+]([O-])cc1` [Compound 4189] had an IC50 under setting [1] of 19.5 nM.

`C[C@H](CC(=O)O)C(=O)NC(C)(C)C#Cc1ccc(NC(=O)CSc2nnnn2-c2ccc(C3CC3)cc2Cl)c(Cl)c1` [Compound 4239] displayed an IC50 under setting [1] of 8.2 nM.

Turning to `CN1CCC[C@H]1C(=O)NC(C)(C)C#Cc1ccc(NC(=O)CSc2nnnn2-c2ccc(C3CC3)cc2Cl)c(Cl)c1` [Compound 4110], the IC50 under setting [1] was found to be 11.5 nM.

On to `CC(C)(C)c1cc(Cl)c(-n2nnnc2SCC(=O)Nc2ccc(-c3ccc(OCC(=O)O)cc3)cc2Cl)c(Cl)c1` [Compound 2018], for which the midpoint of inhibition under setting [3], the IC50, lay at 12 nM. Take `O=C(O)Cc1ccc(-c2ccc(NC(=O)CSc3nnnn3-c3ccc(C4CC4)cc3Cl)c(Cl)c2)cc1` [Compound 2033]: under setting [3], 15 nM corresponded to half-maximal inhibition (IC50). On the same count and under the same terms, under `CC(C)(C)c1ccc(-n2nnnc2SCC(=O)Nc2ccc(C(=O)NCc3ccc(O)c(O)c3)cc2Cl)c(Cl)c1` [Compound 6019] stands 36 nM. `CC(C)(C)c1ccc(-n2nnnc2SCC(=O)Nc2ccc(NC(=O)c3cccc(O)c3)cc2Cl)c(Cl)c1` [Compound 7012] gave a half-inhibitory concentration (IC50) under setting [2] of 128 nM. `CC(C)(N)C#Cc1ccc(NC(=O)CSc2nnnn2-c2cc(C(F)(F)F)ccc2Cl)c(Cl)c1` [Compound 4137] yielded an IC50 under setting [1] of 88 nM. `CC(C)(C)c1ccc(-n2nnnc2SCC(=O)Nc2ccc(C(=O)NC3CCN(Cc4ccccc4)CC3)cc2Cl)c(Cl)c1` [Compound 6009] registered an IC50 under setting [3] of 73 nM.

On to `CC(C)(C)c1ccc(-n2nnnc2SCC(=O)Nc2ccc(OCC(=O)NCCc3ccc(O)cc3)cc2Cl)c(Cl)c1` [Compound 5016], for which the IC50 under setting [3] came out at 116 nM. Regarding `CC(C)(C)c1ccc(-n2nnnc2SCC(=O)Nc2ccc(NC(=O)CCc3ccccc3)cc2Cl)c(Cl)c1` [Compound 7038], the IC50 under setting [2] was 860 nM. Under setting [3], `CC(C)(C)c1ccc(-n2nnnc2SCC(=O)Nc2ccc(C(=O)N3CCC(C(=O)O)CC3)cc2Cl)c(Cl)c1` [Compound 6030] yielded an IC50 of 919 nM. Same read-out and setting: then `CC(C)(C)c1ccc(-n2nccc2SCC(=O)Nc2ccc(-c3ccc(CC(=O)O)cc3)cc2Cl)c(Cl)c1` [Compound 1006], with 216 nM.
